Results taken from PMC10683025, “Discovery of a Hydroxylamine-Based Brain-Penetrant EGFR Inhibitor for Metastatic Non-Small-Cell Lung Cancer” (Journal of Medicinal Chemistry, 2023).
Like-named read-outs stand apart in the source and are kept apart here.

What was measured:
[1] = molecular target: T1, BCR-ABLwt (Phos.) (Homo sapiens, UniProt P00519); assay: KINOMEScan KdELECT Kd determination; format: binding; settings: read-out: Kinase Kd
T1 construct: purchased Eurofins DiscoverX (contract assay)
Procedure: (§1) In vitro kinase activity (inhibitor binding constants (Kd) and biochemical inhibition (IC50’s)) were assessed by Eurofins DiscoverX (Kd determinations) and Eurofins Cerep (biochemical IC50 determinations).

[2] = molecular target: T2, ERBB2 (Homo sapiens, UniProt P04626); assay: KINOMEScan KdELECT Kd determination; format: binding; settings: read-out: Kinase Kd
T2 construct: purchased Eurofins DiscoverX (contract assay)
Procedure: as §1

[3] = test system: TA1537; set-up: species or system Salmonella;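 for Count (# of wells): Revertant-positive wells among 48 replicate wells per concentration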
Procedure: Compounds were assessed for mutagenicity at the Eurofins Panlabs in 384-well plates using four Salmonella strains: TA98, to probe for frameshift mutation (with quercetin as control), TA100 and TA1535, to probe for base pair insertions/deletions (with streptozotocin as control), and TA1537, to probe for frameshift mutations (with aminacridine as control) as previously described.[78] […] A concurrent bacterial cytotoxicity assay was run at 0.6, 1.2, 2.5, 5, 10, 25, 50, and 100 μM to rule out false negatives. Bacterial cytotoxicity was expressed as percent of control growth (OD650). Compounds with growth of less than 60% control were flagged and considered bacterial cytotoxic. […] Significances of the positive counts between the treatment and control were determined using a one-tailed Fisher’s exact test.

[4] = In vitro metabolite identification; format: in vitro ADME; settings: human hepatocytes, 10 μM
[5] = In vitro metabolite identification; format: in vitro ADME; settings: rat hepatocytes, 10 μM
[6] = molecular target: T3, AAK1 (Homo sapiens, UniProt Q2M2I8); assay: KINOMEScan; format: binding; settings: AAK1, 1 µM; read-out: Percent Control
T3 construct: purchased Eurofins DiscoverX
Source text: (§2) Percent control was mapped onto the kinome tree using TREEspot.

[7] = molecular target: T4, ABL1(E255K)-phosphorylated (Homo sapiens, UniProt P00519, E255K); assay: KINOMEScan; format: binding; settings: read-out: Percent Control
T4 construct: purchased Eurofins DiscoverX
Source text: as §2

[8] = molecular target: T5, ABL1(F317I)-phosphorylated (Homo sapiens, UniProt P00519, F317I); assay: KINOMEScan; format: binding; settings: read-out: Percent Control
T5 construct: purchased Eurofins DiscoverX
Source text: as §2

[9] = molecular target: T6, ABL1(Q252H)-phosphorylated (Homo sapiens, UniProt P00519, Q252H); assay: KINOMEScan; format: binding; settings: read-out: Percent Control
T6 construct: purchased Eurofins DiscoverX
Source text: as §2

[10] = molecular target: T7, ABL1(T315I)-nonphosphorylated (Homo sapiens, UniProt P00519, T315I); assay: KINOMEScan; format: binding; settings: read-out: Percent Control
T7 construct: purchased Eurofins DiscoverX
Source text: as §2

[11] = molecular target: T8, ABL1-phosphorylated (Homo sapiens, UniProt P00519); assay: KINOMEScan; format: binding; settings: read-out: Percent Control
T8 construct: purchased Eurofins DiscoverX
Source text: as §2

[12] = molecular target: T9, ABL2 (Homo sapiens, UniProt P42684); assay: KINOMEScan; format: binding; settings: ABL2, 1 µM; read-out: Percent Control
T9 construct: purchased Eurofins DiscoverX
Source text: as §2

[13] = molecular target: T10, ACVR1B (Homo sapiens, UniProt P36896); assay: KINOMEScan; format: binding; settings: read-out: Percent Control
T10 construct: purchased Eurofins DiscoverX
Source text: as §2

[14] = molecular target: T11, ACVR2B (Homo sapiens, UniProt Q13705); assay: KINOMEScan; format: binding; settings: read-out: Percent Control
T11 construct: purchased Eurofins DiscoverX (KINOMEscan)
Source text: as §2

[15] = molecular target: T12, ADCK3 (Homo sapiens, UniProt Q8NI60); assay: KINOMEScan; format: binding; settings: ADCK3, 1 µM; read-out: Percent Control
T12 construct: purchased Eurofins DiscoverX (KINOMEscan)
Source text: as §2

[16] = molecular target: T13, ALK(L1196M) (Homo sapiens, UniProt Q9UM73, L1196M); assay: KINOMEScan; format: binding; settings: read-out: Percent Control
T13 construct: purchased Eurofins DiscoverX (KINOMEscan)
Source text: as §2

[17] = molecular target: T14, ANKK1 (Homo sapiens, UniProt Q8NFD2); assay: KINOMEScan; format: binding; settings: ANKK1, 1 µM; read-out: Percent Control
T14 construct: purchased Eurofins DiscoverX (KINOMEscan)
Source text: as §2

[18] = molecular target: T15, BMPR1A (Homo sapiens, UniProt P36894); assay: KINOMEScan; format: binding; settings: read-out: Percent Control
T15 construct: purchased Eurofins DiscoverX (KINOMEscan)
Source text: as §2

[19] = molecular target: T16, BMX (Homo sapiens, UniProt P51813); assay: KINOMEScan; format: binding; settings: read-out: Percent Control
T16 construct: purchased Eurofins DiscoverX (KINOMEscan)
Source text: as §2

[20] = molecular target: T17, BRAF (Homo sapiens, UniProt P15056); assay: KINOMEScan; format: binding; settings: read-out: Percent Control
T17 construct: purchased Eurofins DiscoverX (KINOMEscan)
Source text: as §2

[21] = molecular target: T18, BRK (Homo sapiens, UniProt Q13882); assay: KINOMEScan; format: binding; settings: read-out: Percent Control
T18 construct: purchased Eurofins DiscoverX (KINOMEscan)
Source text: as §2

[22] = molecular target: T19, BRSK2 (Homo sapiens, UniProt Q8IWQ3); assay: KINOMEScan; format: binding; settings: BRSK2, 1 µM; read-out: Percent Control
T19 construct: purchased Eurofins DiscoverX (KINOMEscan)
Source text: as §2

[23] = molecular target: T20, WNK4 (Homo sapiens, UniProt Q96J92); assay: KINOMEScan; format: binding; settings: WNK4, 1 µM; read-out: Percent Control
T20 construct: purchased Eurofins DiscoverX (KINOMEScan service)
Source text: as §2

[24] = molecular target: T21, YANK3 (Homo sapiens, UniProt Q86UX6); assay: KINOMEScan; format: binding; settings: YANK3, 1 µM; read-out: Percent Control
T21 construct: purchased Eurofins DiscoverX (KINOMEScan service)

[25] = molecular target: T22, YES (Homo sapiens, UniProt P07947); assay: KINOMEScan; format: binding; settings: read-out: Percent Control
T22 construct: purchased Eurofins DiscoverX (KINOMEScan service)

[26] = molecular target: T23, YSK1 (Homo sapiens, UniProt O00506); assay: KINOMEScan; format: binding; settings: YSK1, 1 µM; read-out: Percent Control
T23 construct: purchased Eurofins DiscoverX (KINOMEScan service)

[27] = molecular target: T24, YSK4 (Homo sapiens, UniProt Q56UN5); assay: KINOMEScan; format: binding; settings: YSK4, 1 µM; read-out: Percent Control
T24 construct: purchased Eurofins DiscoverX (KINOMEScan service)

[28] = molecular target: T25, LYN (Homo sapiens, UniProt P07948); assay: KINOMEScan; format: binding; settings: read-out: Percent Control
T25 construct: purchased Eurofins DiscoverX (contract assay)
Source text: as §2

[29] = molecular target: CYP2D6 (Homo sapiens, UniProt P10635); assay: CYP2D6 time-dependent inhibition in primary human hepatocytes; settings: for Inhibition percentage(%) at Top conc.: human hepatocytes; for IC50 at 5 min: human, primary human hepatocytes, probe dextromethorphan (40 μM), O-demethylation
[30] = CYP2D6 IC50, human hepatocytes, pre-incubation 30 min

Chain of CYP2D6 (P10635 whole entry): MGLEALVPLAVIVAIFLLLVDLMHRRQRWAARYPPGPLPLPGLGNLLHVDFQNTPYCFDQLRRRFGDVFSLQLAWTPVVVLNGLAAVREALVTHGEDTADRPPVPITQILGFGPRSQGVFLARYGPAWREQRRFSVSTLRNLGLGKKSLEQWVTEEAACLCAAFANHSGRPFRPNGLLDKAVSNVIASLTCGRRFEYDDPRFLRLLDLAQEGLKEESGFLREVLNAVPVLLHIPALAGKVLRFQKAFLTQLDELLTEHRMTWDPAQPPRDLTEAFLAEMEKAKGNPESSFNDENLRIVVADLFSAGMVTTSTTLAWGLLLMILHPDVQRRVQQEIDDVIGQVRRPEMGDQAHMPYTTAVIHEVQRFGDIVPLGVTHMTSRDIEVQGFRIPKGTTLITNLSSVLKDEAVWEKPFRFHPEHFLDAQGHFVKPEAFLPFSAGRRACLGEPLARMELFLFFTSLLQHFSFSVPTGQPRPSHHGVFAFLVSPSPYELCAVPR
T13 sequence (Q9UM73 19-1620 L1196M): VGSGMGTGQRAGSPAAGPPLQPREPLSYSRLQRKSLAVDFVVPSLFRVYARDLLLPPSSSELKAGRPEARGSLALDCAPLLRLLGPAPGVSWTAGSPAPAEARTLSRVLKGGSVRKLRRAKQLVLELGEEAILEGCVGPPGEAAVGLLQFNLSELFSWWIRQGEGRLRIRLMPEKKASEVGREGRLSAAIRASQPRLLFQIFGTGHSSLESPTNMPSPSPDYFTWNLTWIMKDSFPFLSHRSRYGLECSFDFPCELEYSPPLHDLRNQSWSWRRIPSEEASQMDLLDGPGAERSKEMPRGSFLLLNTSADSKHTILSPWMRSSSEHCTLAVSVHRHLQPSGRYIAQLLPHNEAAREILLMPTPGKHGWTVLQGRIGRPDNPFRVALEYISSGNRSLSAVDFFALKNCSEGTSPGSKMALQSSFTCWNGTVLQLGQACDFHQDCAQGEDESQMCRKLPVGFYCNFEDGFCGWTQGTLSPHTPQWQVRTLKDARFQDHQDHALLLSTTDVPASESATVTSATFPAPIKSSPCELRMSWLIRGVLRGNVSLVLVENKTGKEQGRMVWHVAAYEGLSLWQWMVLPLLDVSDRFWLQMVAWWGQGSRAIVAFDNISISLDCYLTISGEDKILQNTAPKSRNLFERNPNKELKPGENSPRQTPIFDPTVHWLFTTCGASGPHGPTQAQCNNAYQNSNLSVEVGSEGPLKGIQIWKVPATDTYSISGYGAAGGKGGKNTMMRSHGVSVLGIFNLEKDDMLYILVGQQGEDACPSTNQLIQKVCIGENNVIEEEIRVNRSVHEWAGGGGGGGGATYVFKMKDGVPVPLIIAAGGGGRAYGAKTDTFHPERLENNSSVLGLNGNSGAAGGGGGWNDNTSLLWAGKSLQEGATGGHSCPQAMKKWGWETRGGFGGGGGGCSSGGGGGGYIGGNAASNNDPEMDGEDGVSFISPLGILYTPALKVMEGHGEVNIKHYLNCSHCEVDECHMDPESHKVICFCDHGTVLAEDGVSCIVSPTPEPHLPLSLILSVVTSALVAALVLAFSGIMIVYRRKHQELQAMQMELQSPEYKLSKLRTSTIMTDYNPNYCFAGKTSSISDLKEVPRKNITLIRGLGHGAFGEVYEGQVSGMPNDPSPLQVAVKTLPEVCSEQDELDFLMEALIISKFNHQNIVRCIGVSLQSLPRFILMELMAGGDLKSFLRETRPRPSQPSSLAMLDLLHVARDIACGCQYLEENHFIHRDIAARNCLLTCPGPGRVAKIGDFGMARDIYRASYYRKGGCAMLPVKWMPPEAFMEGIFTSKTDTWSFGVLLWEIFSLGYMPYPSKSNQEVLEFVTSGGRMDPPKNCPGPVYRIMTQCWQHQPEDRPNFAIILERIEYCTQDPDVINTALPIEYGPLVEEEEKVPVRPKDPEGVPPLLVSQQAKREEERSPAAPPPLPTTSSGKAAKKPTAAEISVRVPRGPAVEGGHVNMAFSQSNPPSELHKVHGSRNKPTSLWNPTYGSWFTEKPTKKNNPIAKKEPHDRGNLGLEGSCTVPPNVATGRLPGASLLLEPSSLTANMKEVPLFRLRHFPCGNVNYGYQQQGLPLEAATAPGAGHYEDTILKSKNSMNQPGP
T15 sequence (P36894 24-532): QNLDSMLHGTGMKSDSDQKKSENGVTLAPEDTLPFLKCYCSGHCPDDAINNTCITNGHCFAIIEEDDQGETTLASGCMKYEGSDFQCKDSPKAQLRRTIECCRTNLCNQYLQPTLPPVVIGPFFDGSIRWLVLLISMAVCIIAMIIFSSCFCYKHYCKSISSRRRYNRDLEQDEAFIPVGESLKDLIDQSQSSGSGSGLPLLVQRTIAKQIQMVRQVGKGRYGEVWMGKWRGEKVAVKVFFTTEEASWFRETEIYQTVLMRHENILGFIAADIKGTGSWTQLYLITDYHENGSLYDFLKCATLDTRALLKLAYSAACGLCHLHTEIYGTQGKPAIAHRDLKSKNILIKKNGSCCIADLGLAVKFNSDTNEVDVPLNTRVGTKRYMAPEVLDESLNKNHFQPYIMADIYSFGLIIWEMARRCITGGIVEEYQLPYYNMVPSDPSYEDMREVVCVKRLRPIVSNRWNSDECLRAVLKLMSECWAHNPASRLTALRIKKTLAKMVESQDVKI
T16 sequence (P51813 whole entry): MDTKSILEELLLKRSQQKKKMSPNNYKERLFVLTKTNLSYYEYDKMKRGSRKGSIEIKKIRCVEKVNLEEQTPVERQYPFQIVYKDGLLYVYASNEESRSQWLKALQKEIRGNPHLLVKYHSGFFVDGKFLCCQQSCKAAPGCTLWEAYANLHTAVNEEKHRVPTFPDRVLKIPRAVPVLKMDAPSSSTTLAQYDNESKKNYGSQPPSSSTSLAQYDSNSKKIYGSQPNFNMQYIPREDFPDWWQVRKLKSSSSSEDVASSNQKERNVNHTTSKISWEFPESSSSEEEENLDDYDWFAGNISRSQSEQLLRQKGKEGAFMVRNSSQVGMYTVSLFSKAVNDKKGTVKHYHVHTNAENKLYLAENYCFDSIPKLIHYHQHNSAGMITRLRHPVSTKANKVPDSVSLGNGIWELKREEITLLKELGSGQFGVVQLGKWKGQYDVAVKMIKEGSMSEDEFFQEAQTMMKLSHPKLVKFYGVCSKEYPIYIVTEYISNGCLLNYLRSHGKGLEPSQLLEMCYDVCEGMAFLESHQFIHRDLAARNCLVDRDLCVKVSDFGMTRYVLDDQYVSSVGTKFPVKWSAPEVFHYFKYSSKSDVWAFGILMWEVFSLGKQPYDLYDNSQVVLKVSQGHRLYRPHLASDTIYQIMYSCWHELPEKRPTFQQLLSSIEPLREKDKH
T25 sequence (P07948 whole entry): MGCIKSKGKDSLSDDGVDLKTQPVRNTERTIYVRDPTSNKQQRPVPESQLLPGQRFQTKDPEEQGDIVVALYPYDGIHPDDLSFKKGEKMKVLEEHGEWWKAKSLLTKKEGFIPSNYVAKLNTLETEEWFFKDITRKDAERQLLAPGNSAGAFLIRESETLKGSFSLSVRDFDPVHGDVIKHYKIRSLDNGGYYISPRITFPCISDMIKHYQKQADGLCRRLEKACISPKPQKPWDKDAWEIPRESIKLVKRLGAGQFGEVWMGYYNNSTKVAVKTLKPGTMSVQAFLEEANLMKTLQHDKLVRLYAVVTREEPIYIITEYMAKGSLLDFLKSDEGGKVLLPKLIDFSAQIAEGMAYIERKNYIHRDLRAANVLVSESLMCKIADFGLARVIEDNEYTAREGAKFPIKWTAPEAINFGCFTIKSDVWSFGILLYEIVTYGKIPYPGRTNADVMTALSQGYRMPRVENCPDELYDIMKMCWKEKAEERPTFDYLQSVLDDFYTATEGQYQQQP
T14 sequence (Q8NFD2 whole entry): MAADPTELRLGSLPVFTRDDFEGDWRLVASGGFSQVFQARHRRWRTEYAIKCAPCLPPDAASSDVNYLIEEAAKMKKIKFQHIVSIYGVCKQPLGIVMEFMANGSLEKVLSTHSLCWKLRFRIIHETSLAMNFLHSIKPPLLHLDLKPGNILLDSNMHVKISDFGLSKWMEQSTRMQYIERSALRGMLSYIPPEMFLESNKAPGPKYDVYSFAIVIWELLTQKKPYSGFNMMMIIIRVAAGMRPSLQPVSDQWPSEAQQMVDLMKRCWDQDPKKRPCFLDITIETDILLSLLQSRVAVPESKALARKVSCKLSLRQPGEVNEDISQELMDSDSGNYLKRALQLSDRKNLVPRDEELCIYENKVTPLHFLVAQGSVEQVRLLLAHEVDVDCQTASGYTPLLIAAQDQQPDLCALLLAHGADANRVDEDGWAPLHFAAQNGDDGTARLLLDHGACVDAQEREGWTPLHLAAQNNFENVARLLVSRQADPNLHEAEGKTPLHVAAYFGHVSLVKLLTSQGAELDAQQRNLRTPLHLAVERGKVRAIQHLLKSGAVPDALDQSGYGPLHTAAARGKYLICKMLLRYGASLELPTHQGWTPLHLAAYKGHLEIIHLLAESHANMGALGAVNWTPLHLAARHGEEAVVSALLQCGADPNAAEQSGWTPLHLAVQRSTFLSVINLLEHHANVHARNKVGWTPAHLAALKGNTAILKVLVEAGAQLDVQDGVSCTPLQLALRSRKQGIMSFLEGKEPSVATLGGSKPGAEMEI
T12 sequence (Q8NI60 163-647): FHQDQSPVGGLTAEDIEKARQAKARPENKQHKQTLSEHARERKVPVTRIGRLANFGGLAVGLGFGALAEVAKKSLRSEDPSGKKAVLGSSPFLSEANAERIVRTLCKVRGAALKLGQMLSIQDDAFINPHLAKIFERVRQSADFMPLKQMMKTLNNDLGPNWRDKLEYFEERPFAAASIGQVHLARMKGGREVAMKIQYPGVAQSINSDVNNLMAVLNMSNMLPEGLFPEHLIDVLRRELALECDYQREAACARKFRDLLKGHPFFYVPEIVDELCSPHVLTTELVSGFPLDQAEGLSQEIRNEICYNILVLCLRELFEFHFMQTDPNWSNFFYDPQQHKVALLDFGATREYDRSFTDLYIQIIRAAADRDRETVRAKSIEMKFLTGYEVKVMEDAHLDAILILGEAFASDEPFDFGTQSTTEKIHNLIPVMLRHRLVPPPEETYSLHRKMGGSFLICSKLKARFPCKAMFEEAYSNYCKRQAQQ

For `COc1cc2ncnc(Nc3cccc(Cl)c3F)c2cc1OCCON1CCN(C)CC1` [Compound 9, N-(3-Chloro-2-fluorophenyl)-7-methoxy-6-(2-((4-methylpiperazin-1-yl)oxy)ethoxy)quinazolin-4-amine], the Kd [1] was 0.18 µM, the Kd [2] was 0.021 µM and the “Count (# of wells)” value ([3]; TA1537+S9, 1.0E-04 M) was 1. The “Positive Significance (- to +++)” value ([3]; TA1537+S9, 1.0E-04 M) was “-”, the “Count (# of wells)” value ([3]; TA1537+S9, 1.0E-05 M) was 5 and the “Positive Significance (- to +++)” value ([3]; TA1537+S9, 1.0E-05 M) was “-”. The “Count (# of wells)” value ([3]; TA1537+S9, 5.0E-05 M) was 4, the “Positive Significance (- to +++)” value ([3]; TA1537+S9, 5.0E-05 M) was “-” and the “Count (# of wells)” value ([3]; TA1537+S9, 5.0E-06 M) was 3. The “Positive Significance (- to +++)” value ([3]; TA1537+S9, 5.0E-06 M) was “-”, the “Count (# of wells)” value ([3]; TA1537-S9, 1.0E-04 M) was 0 and the “Positive Significance (- to +++)” value ([3]; TA1537-S9, 1.0E-04 M) was “-”. The “Count (# of wells)” value ([3]; TA1537-S9, 1.0E-05 M) was 0, the “Positive Significance (- to +++)” value ([3]; TA1537-S9, 1.0E-05 M) was “-” and the “Count (# of wells)” value ([3]; TA1537-S9, 5.0E-05 M) was 0. For the same compound, the “Positive Significance (- to +++)” value ([3]; TA1537-S9, 5.0E-05 M) was “-”, the “Count (# of wells)” value ([3]; TA1537-S9, 5.0E-06 M) was 1 and the “Positive Significance (- to +++)” value ([3]; TA1537-S9, 5.0E-06 M) was “-”. For the same compound, the “share of parent/metabolite after incubation of 9” value [4] was 14.20%, the “share of parent/metabolite after incubation of 9” value [5] was 1.11% and the remaining binding at 1 µM [6] was 92%. The remaining binding at 1 µM [7] was 6.4%, the remaining binding at 1 µM [8] was 48% and the remaining binding at 1 µM [9] was 8.8%. For the same compound, the remaining binding at 1 µM [10] was 68%, the remaining binding at 1 µM [11] was 7.7% and the remaining binding at 1 µM [12] was 64%. For the same compound, the remaining binding at 1 µM [13] was 86%, the remaining binding at 1 µM [14] was 100% and the remaining binding at 1 µM [15] was 90%. It also gave a remaining binding at 1 µM [16] of 100%, a remaining binding at 1 µM [17] of 97% and a remaining binding at 1 µM [18] of 90%. It also gave a remaining binding at 1 µM [19] of 93%, a remaining binding at 1 µM [20] of 89% and a remaining binding at 1 µM [21] of 94%. The remaining binding at 1 µM [22] was 74%, the remaining binding at 1 µM [23] was 95% and the remaining binding at 1 µM [24] was 86%. It also gave a remaining binding at 1 µM [25] of 59%, a remaining binding at 1 µM [26] of 94% and a remaining binding at 1 µM [27] of 46%. The remaining binding at 1 µM [28] was 7.4%, the IC50 [29, 30] was 4.75 µM and the “Inhibition percentage(%) at Top conc.” value ([29]; 0 min) was 63.41%. For the same compound, the “Inhibition percentage(%) at Top conc.” value ([29]; 30 min) was 66.54%, the IC50 at 5 min ([29]; CYP2D6 IC50, human hepatocytes, pre-incubation 0 min) was 4.57 µM and the IC50 at 5 min [29, 30] was 4.73 µM.
